Data taken from patent US20250213555A1, “SUBSTITUTED TETRAHYDROFURAN ANALOGS AS MODULATORS OF SODIUM CHANNELS” (VERTEX PHARMACEUTICALS INCORPORATED, priority 2021, published 2025).

Molecular target: human Nav 1.8 (Homo sapiens, UniProt Q9Y5Y9)
Test: E-VIPR assay detecting and measuring Nav inhibition properties
Type: cell-based
Conditions: HEK cells expressing a truncated form of human Nav 1.8; compound numbers without "*" (not marked as run in the presence of human serum); read-out: measured IC50 value in the E-VIPR Assay
Procedure, shortened: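 Nav inhibition was read by E-VIPR: cells were electrically stimulated while coumarin/oxonol FRET emissions were recorded. Cells were HEK expressing a truncated human Nav 1.8 and co-transduced with KIR2.1, and were assayed in 25% final human serum.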

Sequence of human Nav 1.8 (Q9Y5Y9 126-399 limits assumed): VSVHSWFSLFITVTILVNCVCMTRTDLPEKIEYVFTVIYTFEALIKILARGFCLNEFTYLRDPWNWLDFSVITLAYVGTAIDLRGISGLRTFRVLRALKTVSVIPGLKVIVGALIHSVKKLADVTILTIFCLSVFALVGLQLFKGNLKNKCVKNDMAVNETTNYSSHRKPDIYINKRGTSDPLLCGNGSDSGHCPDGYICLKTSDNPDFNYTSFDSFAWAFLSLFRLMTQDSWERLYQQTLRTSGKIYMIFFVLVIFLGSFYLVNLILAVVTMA
Sequence of human Nav 1.8 (Q9Y5Y9 660-890 limits assumed): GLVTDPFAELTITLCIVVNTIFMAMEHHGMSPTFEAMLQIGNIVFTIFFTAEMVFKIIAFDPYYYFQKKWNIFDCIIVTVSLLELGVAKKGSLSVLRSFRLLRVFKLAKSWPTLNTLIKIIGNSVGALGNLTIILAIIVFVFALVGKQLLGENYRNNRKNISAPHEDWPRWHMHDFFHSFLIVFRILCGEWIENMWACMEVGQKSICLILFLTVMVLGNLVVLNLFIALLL
Sequence of human Nav 1.8 (Q9Y5Y9 1148-1722 limits assumed): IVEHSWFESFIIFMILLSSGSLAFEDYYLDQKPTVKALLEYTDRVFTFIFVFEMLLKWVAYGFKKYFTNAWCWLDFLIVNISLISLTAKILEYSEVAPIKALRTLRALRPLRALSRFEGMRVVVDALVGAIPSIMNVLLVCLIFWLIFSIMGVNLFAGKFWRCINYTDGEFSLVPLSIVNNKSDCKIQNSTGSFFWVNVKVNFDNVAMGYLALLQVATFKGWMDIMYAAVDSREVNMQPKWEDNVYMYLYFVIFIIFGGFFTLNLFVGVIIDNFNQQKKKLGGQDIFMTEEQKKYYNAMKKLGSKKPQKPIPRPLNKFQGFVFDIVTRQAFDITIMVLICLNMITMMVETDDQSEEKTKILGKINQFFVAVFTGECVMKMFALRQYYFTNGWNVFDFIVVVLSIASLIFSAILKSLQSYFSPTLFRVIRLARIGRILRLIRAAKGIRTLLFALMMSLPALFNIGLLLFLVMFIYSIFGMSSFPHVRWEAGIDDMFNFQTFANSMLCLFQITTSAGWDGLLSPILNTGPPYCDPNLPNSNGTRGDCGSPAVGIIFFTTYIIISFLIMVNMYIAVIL

| SMILES | IC50 [nM] |
| --- | --- |
| C[C@H]1[C@@H](c2ccc(F)c(F)c2OCC(=NO)C2CC2)[C@H](C(=O)Nc2ccnc(C(N)=O)c2)O[C@@]1(C)C(F)(F)F (single isomer, unassigned) [Compound 183, rel-4-((2R*,3S*,4S*,5R*)-3-(2-(2-cyclopropyl-2-(hydroxyimino)ethoxy)-3,4-difluorophenyl)-4,5-dimethyl-5-(trifluoromethyl)tetrahydrofuran-2-carboxamido) picolinamide] | < 10 |
| C[C@H]1[C@@H](c2ccc(F)c(F)c2OCCN2CC3CC(C2)O3)[C@H](C(=O)Nc2ccnc(C(N)=O)c2)O[C@@]1(C)C(F)(F)F [Compound 110, 4-((2R,3S,4S,5R)-3-(2-(2-(6-oxa-3-azabicyclo[3.1.1]heptan-3-yl)ethoxy)-3,4-difluorophenyl)-4,5-dimethyl-5-(trifluoromethyl)tetrahydrofuran-2-carboxamido)picolinamide] | < 10 |
| C[C@H]1[C@@H](c2ccc(F)c(F)c2OCCN[C@@H]2CCOC2)[C@H](C(=O)Nc2ccnc(C(N)=O)c2)O[C@@]1(C)C(F)(F)F [Compound 116, 4-((2R,3S,4S,5R)-3-(3,4-difluoro-2-(2-(((R)-tetrahydrofuran-3-yl)amino)ethoxy)phenyl)-4,5-dimethyl-5-(trifluoromethyl)tetrahydrofuran-2-carboxamido)picolinamide] | 10 to 100 |
| COc1c([C@H]2[C@H](C(=O)Nc3cc(C(=O)N4CCNCC4)ncn3)O[C@@](C)(C(F)(F)F)[C@H]2C)ccc(F)c1F [Compound 21, (2R,3S,4S,5R)-3-(3,4-difluoro-2-methoxyphenyl)-4,5-dimethyl-N-(6-(piperazine-1-carbonyl)pyrimidin-4-yl)-5-(trifluoromethyl)tetrahydrofuran-2-carboxamide] | 10 to 100 |
| COCC1(C)CC(c2ccc(F)c(F)c2OC)C(C(=O)Nc2ccnc(C(N)=O)c2)O1 (single isomer, unassigned) [Compound 27] | ≥ 1000 |
| COc1c([C@H]2[C@H](C(=O)Nc3ccnc(C(=O)N4CCN(C)CC4)n3)O[C@@](C)(C(F)(F)F)[C@H]2C)ccc(F)c1F [Compound 11, (2R,3S,4S,5R)-3-(3,4-difluoro-2-methoxyphenyl)-4,5-dimethyl-N-(2-(4-methylpiperazine-1-carbonyl)pyrimidin-4-yl)-5-(trifluoromethyl)tetrahydrofuran-2-carboxamide] | 10 to 100 |
| C[C@H]1[C@@H](c2ccc(F)c(F)c2OCCN2CC[C@H](F)C2)[C@H](C(=O)Nc2ccnc(C(N)=O)c2)O[C@@]1(C)C(F)(F)F [Compound 49, 4-((2R,3S,4S,5R)-3-(3,4-difluoro-2-(2-((S)-3-fluoropyrrolidin-1-yl)ethoxy)phenyl)-4,5-dimethyl-5-(trifluoromethyl)tetrahydrofuran-2-carboxamido)picolinamide] | 10 to 100 |
| CC[C@H](CO)COc1c([C@H]2[C@H](C(=O)Nc3ccnc(C(N)=O)c3)O[C@@](C)(C(F)(F)F)[C@H]2C)ccc(F)c1F (single isomer, unassigned) [Compound 93, rel-4-((2R*,3S*,4S*,5R*)-3-(3,4-difluoro-2-(2-(hydroxymethyl)butoxy)phenyl)-4,5-dimethyl-5-(trifluoromethyl)tetrahydrofuran-2-carboxamido)picolinamide] | < 10 |
| COc1c([C@H]2[C@H](C(=O)Nc3cccc(C(=O)N4CCN(C)CC4)n3)O[C@@](C)(C(F)(F)F)[C@H]2C)ccc(F)c1F [Compound 10, (2R,3S,4S,5R)-3-(3,4-difluoro-2-methoxyphenyl)-4,5-dimethyl-N-(6-(4-methylpiperazine-1-carbonyl)pyridin-2-yl)-5-(trifluoromethyl)tetrahydrofuran-2-carboxamide] | 100 to 1000 |
| COc1c([C@H]2[C@H](C(=O)Nc3cc(C(=O)N4CCNCC4)ccn3)O[C@@](C)(C(F)(F)F)[C@H]2C)ccc(F)c1F [Compound 18, (2R,3S,4S,5R)-3-(3,4-difluoro-2-methoxyphenyl)-4,5-dimethyl-N-(4-(piperazine-1-carbonyl)pyridin-2-yl)-5-(trifluoromethyl)tetrahydrofuran-2-carboxamide] | 10 to 100 |
| CC1C(c2ccc(F)c(F)c2OCC2CCC2O)C(C(=O)Nc2ccnc(C(N)=O)c2)OC1(C)C(F)(F)F [Compound 98, rel-4-((2R*,3S*,4S*,5R*)-3-(3,4-difluoro-2-(((15,2S)-2-hydroxycyclobutyl)methoxy)phenyl)-4,5-dimethyl-5-(trifluoromethyl)tetrahydrofuran-2-carboxamido)picolinamide] | 10 to 100 |
| C[C@H]1[C@@H](c2ccc(F)c(F)c2OCCC(C)(C)C#N)[C@H](C(=O)Nc2ccnc(C(N)=O)c2)O[C@@]1(C)C(F)(F)F [Compound 74, 4-((2R,3S,4S,5R)-3-(2-(3-cyano-3-methylbutoxy)-3,4-difluorophenyl)-4,5-dimethyl-5-(trifluoromethyl)tetrahydrofuran-2-carboxamido)picolinamide] | 10 to 100 |
| C[C@H]1[C@@H](c2ccc(F)c(F)c2OCCCN2CCC2)[C@H](C(=O)Nc2ccnc(C(N)=O)c2)O[C@@]1(C)C(F)(F)F [Compound 134, 4-((2R,3S,4S,5R)-3-(2-(3-(azetidin-1-yl)propoxy)-3,4-difluorophenyl)-4,5-dimethyl-5-(trifluoromethyl)tetrahydrofuran-2-carboxamido)picolinamide] | 10 to 100 |
| C[C@H]1[C@@H](c2ccc(F)c(F)c2OCCN2CC3(COC3)C2)[C@H](C(=O)Nc2ccnc(C(N)=O)c2)O[C@@]1(C)C(F)(F)F [Compound 53, 4-((2R,3S,4S,5R)-3-(2-(2-(2-oxa-6-azaspiro[3.3]heptan-6-yl)ethoxy)-3,4-difluorophenyl)-4,5-dimethyl-5-(trifluoromethyl)tetrahydrofuran-2-carboxamido)picolinamide] | < 10 |
| C[C@H]1[C@@H](c2ccc(F)c(F)c2OC[C@H]2CCO2)[C@H](C(=O)Nc2ccnc(C(N)=O)c2)O[C@@]1(C)C(F)(F)F (single isomer, unassigned) [Compound 59, rel-4-((2R*,3S*,4S*,5R*)-3-(3,4-difluoro-2-((oxetan-2-yl)methoxy)phenyl)-4,5-dimethyl-5-(trifluoromethyl)tetrahydrofuran-2-carboxamido)picolinamide] | < 10 |

Other lines, results leading:

| IC50 [nM] | SMILES |
| --- | --- |
| < 10 | CNC1CCN(C(=O)c2cc(NC(=O)[C@@H]3O[C@@](C)(C(F)(F)F)[C@@H](C)[C@H]3c3ccc(F)c(F)c3OC)ccn2)C1 (single isomer, unassigned) [Compound 222, rel-(2R*,3S*,4S*,5R*)-3-(3,4-difluoro-2-methoxyphenyl)-4,5-dimethyl-N-(2-(3-(methylamino)pyrrolidine-1-carbonyl)pyridin-4-yl)-5-(trifluoromethyl)tetrahydrofuran-2-carboxamide] |
| < 10 | C[C@H]1[C@@H](c2ccc(F)c(F)c2OCC(CO)C(F)(F)F)[C@H](C(=O)Nc2ccnc(C(N)=O)c2)O[C@@]1(C)C(F)(F)F (stereo partly drawn) [Compound 169, 4-((2R,3S,4S,5R)-3-(3,4-difluoro-2-(3,3,3-trifluoro-2-(hydroxymethyl)propoxy)phenyl)-4,5-dimethyl-5-(trifluoromethyl)tetrahydrofuran-2-carboxamido)picolinamide] |
| < 10 | COc1c([C@H]2[C@H](C(=O)Nc3ccnc(C(=O)N4CC[C@@H](O)C4)c3)O[C@@](C)(C(F)(F)F)[C@H]2C)ccc(F)c1F [Compound 220, (2R,3S,4S,5R)-3-(3,4-difluoro-2-methoxyphenyl)-N-(2-((R)-3-hydroxypyrrolidine-1-carbonyl)pyridin-4-yl)-4,5-dimethyl-5-(trifluoromethyl)tetrahydrofuran-2-carboxamide] |
| < 10 | COc1c([C@H]2[C@H](C(=O)Nc3ccnc(C(=O)N4CC5(CCN5)C4)c3)O[C@@](C)(C(F)(F)F)[C@H]2C)ccc(F)c1F [Compound 215, (2R,3S,4S,5R)—N-(2-(1,6-diazaspiro[3.3]heptane-6-carbonyl)pyridin-4-yl)-3-(3,4-difluoro-2-methoxyphenyl)-4,5-dimethyl-5-(trifluoromethyl)tetrahydrofuran-2-carboxamide] |
| < 10 | C[C@H]1[C@@H](c2ccc(F)c(F)c2OCCN2CC(C)(F)C2)[C@H](C(=O)Nc2ccnc(C(N)=O)c2)O[C@@]1(C)C(F)(F)F [Compound 121, 4-((2R,3S,4S,5R)-3-(3,4-difluoro-2-(2-(3-fluoro-3-methylazetidin-1-yl)ethoxy)phenyl)-4,5-dimethyl-5-(trifluoromethyl)tetrahydrofuran-2-carboxamido)picolinamide] |
| < 10 | C[C@H]1[C@@H](c2ccc(F)c(F)c2OC2COC2)[C@H](C(=O)Nc2ccnc(C(N)=O)c2)O[C@@]1(C)C(F)(F)F [Compound 58, 4-((2R,3S,4S,5R)-3-(3,4-difluoro-2-(oxetan-3-yloxy)phenyl)-4,5-dimethyl-5-(trifluoromethyl)tetrahydrofuran-2-carboxamido) picolinamide] |
| < 10 | COc1c([C@H]2[C@H](C(=O)Nc3ccnc(C(=O)N4C[C@H](OC)[C@H](N(C)C)C4)c3)O[C@@](C)(C(F)(F)F)[C@H]2C)ccc(F)c1F [Compound 302, (2R,3S,4S,5R)-3-(3,4-difluoro-2-methoxyphenyl)-N-(2-((3R,4S)-3-(dimethylamino)-4-methoxypyrrolidine-1-carbonyl)pyridin-4-yl)-4,5-dimethyl-5-(trifluoromethyl)tetrahydrofuran-2-carboxamide] |
| < 10 | COc1c([C@H]2[C@H](C(=O)Nc3ccnc(C(=O)N4C[C@H](OC)[C@@H](N(C)C)C4)c3)O[C@@](C)(C(F)(F)F)[C@H]2C)ccc(F)c1F [Compound 293, (2R,3S,4S,5R)-3-(3,4-difluoro-2-methoxyphenyl)-N-(2-((3S,4S)-3-(dimethylamino)-4-methoxypyrrolidine-1-carbonyl)pyridin-4-yl)-4,5-dimethyl-5-(trifluoromethyl)tetrahydrofuran-2-carboxamide] |
